Experiments:
Format in all cases: cell-based, mouse
mHypoE-44 cell line = experiment: Gene expression by qRT-PCR in mHypoE-44 hypothalamic cell line; conditions: for effect of PKA inhibition on BAP effect on Npy expression: n=2
Description: (§1) Hypothalamic neurons from embryonic and adult mice were previously immortalized to generate the clonal cell lines mHypoE-46, mHypoE-44, mHypoE-41, mHypoE-38, mHypoA-59, a FAC-sorted POMC/GFP mouse-derived cell line, mHypoA-POMC/GFP-2, and a mixed culture mHypoA-Bmal1-WT/F cell line (6, 13, 14). The mHypoE-46, mHypoE-44, and mHypoA-Bmal1-WT/F lines were cultured in DMEM containing 1000 mg/L glucose supplemented with 5% FBS and 1% pen/strep. The mHypoE-41, mHypoE-38, and mHypoA-59 cell lines were cultured in DMEM containing 4500 mg/L glucose supplemented with 2% FBS and 1% pen/strep. The mHypoA-POMC/GFP-2 line was cultured in DMEM containing 1000 mg/L glucose supplemented with 2% FBS and 1% pen/strep. All cells were maintained in 5% CO2 at 37° C. BAP was initially dissolved in DMSO solvent (vehicle control) to achieve 1000x the intended dose. The BAP solution was then diluted 1:1000 with the growth media used for the cell line. For co-treatment experiments, the vehicle control for ATP, UDP, and PKI was water, and for the H89 PKA inhibitor was DMSO. Neuropeptide gene expression levels were determined by qRT-PCR.
(§2) For cell culture experiments, total RNA was isolated using PureLink RNA isolation kit (Thermofisher Scientific, Burlington, ON, Canada) according to the manufacturer's instruction with on column DNase step (PureLink DNAse kit) or DNase I treatment to remove genomic DNA. For mouse experiments, total RNA was isolated using mirVana PARIS RNA and native protein isolation kit (Thermofisher Scientific). RNA quality and quantity were measured using Nanodrop 2000 and 500-1000 ng of complimentary DNA (cDNA) was synthesized with High Capacity cDNA Reverse Transcription kit (Applied biosystems, Thermofisher Scientific). Quantitative reverse transcription polymerase chain reaction (RT-qPCR) was performed with 12.5 ng of cDNA amplified with Platinum SYBR green qPCR SuperMix-UDG with ROX on an Applied Biosystems Prism 7900HT or PowerTrack Green Master Mix on an Applied Biosystems QuantStudio 5 and gene specific primers as per manufacturer's instructions (Table 1). Data was analyzed using […] and normalized to reference gene, either 60S ribosomal protein L7 (Rpl7) or Histone 3a (His).

[1] = system: mHypoA-Bmal1-WT/F cell line; experiment: Gene expression by qRT-PCR in mHypoA-Bmal1-WT/F hypothalamic cell line; conditions: 100 μM BAP, 16 hr
Description: as §1
as §2, with “For mouse experiments, total RNA was isolated using mirVana PARIS RNA and native protein isolation kit (Thermofisher Scientific).” left out

p70-S6K = p70-S6K (Thr389) phosphorylation by Western blot in mHypoE-46; conditions: 100 μM BAP for 5, 15, 30, 60 and 90 minutes, serum-starved mHypoE-46
Description: mHypoE-46 cells were serum starved in 5.5 mM glucose (LG) DMEM for 1 hour prior to treatment with vehicle (0.1% DMSO), 100 µM BAP or H20, […] 5-Aminoimidazole-4-carboxamide ribonucleotide (AICAR) or 0 mM glucose DMEM. Protein was harvested using 1× cell lysis buffer (Cell Signaling Technologies, Inc, CST) containing protease and phosphatase inhibitors. A total of 30 μg protein was separated on a 12% SDS-polyacrylamide gels and transferred onto PVDF membranes. Membranes were blocked in 5% milk dissolved in Tris-buffered saline with Tween 20 (TBS-T) for 1 h and incubated with primary antibody overnight at 4° C. phospho-AMPKα (Thr172; cat. 2532S, CST), and total AMPKα (cat. 2535S, CST); phospho-p70-S6K (Thr389; cat. 9205S, CST) and total p70-S6K (cat. 9202S, CST); insulin receptor ß (cat. 3025S, CST); phospho-AKT (Ser473; cat. 9271S, CST) and total AKT (cat. 9272S, CST); phospho-ERK1/2 (Thr202/Tyr204; cat. 9101, CST) and total ERK (cat. 4695, CST) were diluted 1:1000 in 5% milk in TBS-T. Membranes were washed and incubated with secondary HRP-linked antirabbit antibody (1:7500 in 5% milk in TBS-T, CST) for 1 h, washed, and imaged using the Signal Fire ECL Reagent (CST) on the iBright 1500 Imaging System (Thermofisher). Protein density was quantified using ImageJ or the iBright Imaging System. […]

mHypoE-41 cell line = experiment: Gene expression by qRT-PCR in mHypoE-41 hypothalamic cell line; conditions: 16 hr
Description: as §1, §2

With `c1ccc(CNc2ncnc3nc[nH]c23)cc1` [BAP, N6-benzylaminopurine] the “effect of PKA inhibition on BAP effect on Npy expression” value (mHypoE-44 cell line; 100 μM BAP + 1 μM H89, 16 hr) was “unable to block the effects of BAP on Npy expression”, the “effect of PKA inhibition on BAP effect on Npy expression” value (mHypoE-44 cell line; 100 μM BAP + 10 μM PKI, 16 hr) was “unable to block the effects of BAP on Npy expression” and the “Npy mRNA under co-treatment with ATP” value (mHypoE-44 cell line; 100 μM BAP + 100 μM ATP, 16 hr) was “still able to overcome this induction”. For the same molecule, the “Npy mRNA under co-treatment with UDP (effect of UDP on BAP repression)” value (mHypoE-44 cell line; 100 μM BAP + 100 μM UDP, 16 hr) was “block the repression of Npy levels by BAP”, the “Npy mRNA under co-treatment with UTP (effect of UTP on BAP repression)” value (mHypoE-44 cell line; 100 μM BAP + 100 μM UTP, 16 hr, n=2 preliminary) was “appears to be able to block the repression of Npy levels by BAP” and the “Agrp mRNA expression” value (mHypoE-44 cell line; 100 μM BAP, 16 hr) was “increased”. For the same molecule, the “Npy mRNA expression” value (mHypoE-44 cell line; 100 μM BAP, 16 hr) was “supressed”, the “Npy mRNA expression, time course” value (mHypoE-44 cell line; 100 μM BAP, at 8 and 16 hr (tested 2, 4, 8, 16, 24 hr)) was “significantly downregulate” and the “BAP dose with strongest Npy decrease” value (mHypoE-44 cell line; dose curve, 16 hr) was 500 µM. The “Npy expression, dose curve” value (mHypoE-44 cell line; increasing concentrations of BAP, 16 hr) was “decreases Npy in a dose dependent manner”, the “Agrp mRNA expression” value [1] was “increased” and the “Npy mRNA expression” value [1] was “supressed”. The Pomc expression [1] was “significantly induced”, the “p70-S6K (Thr389) phosphorylation (activity)” value (p70-S6K) was “significantly downregulated” and the “Npy mRNA under co-treatment with ATP” value (mHypoE-41 cell line; 100 μM BAP + 100 μM ATP) was “unable to further induce Npy”. The “Agrp mRNA expression” value (mHypoE-41 cell line; 100 μM BAP) was “increased”, the “Npy mRNA expression” value (mHypoE-41 cell line; 100 μM BAP) was “increased” and the “BAP dose with strongest Npy increase” value (mHypoE-41 cell line; dose curve, attenuated at 500 μM) was 250 µM. For the same molecule, the “Npy expression, dose curve” value (mHypoE-41 cell line; increasing concentrations of BAP) was “increases the expression of Npy”.
